The values below come from the Kinase Knowledgebase extract (Sharma et al. 2016).

pIC50: −log10 of the molar value.

This assay concerns the target CDK2 (human) (UniProt P24941). Put plainly: Enzyme Assay.
With `CC(C)c1[nH]ncc1-c1ccnc(NCCCO)c1`, the pIC50 – broadly, −log10 of the IC50, conventionally taken in molar units – was over 5.30.

The molecule `CC(C)CCNc1cc(-c2cn[nH]c2C(C)C)ccn1` had a pIC50 of over 5.30.

`Cc1n[nH]cc1-c1ccnc(NCC(C)C)n1` gave a pIC50 of over 5.30.

The molecule `Cc1cccc(CNc2cc(-c3cn[nH]c3C3CCCC3)ccn2)c1` showed a pIC50 of over 5.30.

The molecule `CC(C)c1[nH]ncc1-c1ccnc(NC2CCN(C)CC2)c1` showed a pIC50 of over 4.82.

`Cc1n[nH]cc1-c1ccnc(NC2CCCNC2)n1` (centres undefined) had a pIC50 of over 5.30.

`c1cc(-c2cn[nH]c2C2CCCC2)cc(NC2CCC2)n1` showed a pIC50 of over 6.30.

`CC(C)c1[nH]ncc1-c1ccnc(NCCc2cccnc2)c1` had a pIC50 of over 5.30.

For the molecule `c1cc(-c2cn[nH]c2C2CCCC2)cc(NC2CCCC2)n1`, the negative logarithm of the IC50 (pIC50) was over 6.30.

Consider `CC(C)c1[nH]ncc1-c1ccnc(NCC2CC2)c1`, for which the pIC50 is over 5.30.

`CC(C)c1[nH]ncc1-c1ccnc(NCc2ccccc2)c1` gave a pIC50 of over 5.30.

`Cc1n[nH]cc1-c1ccnc(NCCOc2ccccc2)n1`: the pIC50 is over 4.82.

For the molecule `CC(C)c1n[nH]cc1-c1ccnc(NC2CCN(C)CC2)n1`, the pIC50 was over 6.00.

`CC(C)c1[nH]ncc1-c1ccnc(NCc2ccc(F)cc2)c1` showed a pIC50 of over 5.30.

Consider `CC(C)c1n[nH]cc1-c1ccnc(NC2CCc3cc(Cl)ccc32)n1` (centres undefined), for which the negative-log IC50 (pIC50) was over 6.30.

On to `Cc1n[nH]cc1-c1ccnc(NCc2ccc3c(c2)OCO3)n1`, for which the pIC50 was over 5.00.

In turn, `Cc1n[nH]cc1-c1ccnc(NCCCn2ccnc2)n1` had a pIC50 of over 5.00.

`CCC(C)c1[nH]ncc1-c1ccnc(NCc2ccccc2C)c1` (centres undefined) had a pIC50 of over 5.30.

The molecule `CC(C)c1[nH]ncc1-c1ccnc(Nc2ccccc2)c1` showed a pIC50 of over 7.30.

On to `Cc1ccccc1CNc1cc(-c2cn[nH]c2C2CCCCCC2)ccn1`, for which the pIC50 was over 5.00.

Molecule `Cc1n[nH]cc1-c1ccnc(NC2CC2)n1` had a negative-log IC50 (pIC50) of over 5.00.

Consider `CC(C)c1[nH]ncc1-c1ccnc(NCC2CCCCC2)c1`, for which the pIC50 was over 5.30.

Molecule `CC(C)c1[nH]ncc1-c1ccnc(NCCc2ccccn2)c1` gave a pIC50 of over 5.30.

Regarding `CC(C)c1[nH]ncc1-c1ccnc(NCC2CCCCCC2)c1`, the pIC50 was over 5.30.

As for `FC(F)(F)c1ccccc1CNc1cc(-c2cn[nH]c2C2CCCC2)ccn1`, the pIC50 was over 5.30.

As to `COc1ccccc1CNc1nccc(-c2c[nH]nc2C)n1`, the pIC50 was over 4.82.

In turn, `CC(C)c1n[nH]cc1-c1ccnc(N[C@@H](C)c2ccccc2)n1` gave a negative logarithm of the IC50 (pIC50) of over 5.00.

Turning to `Cc1n[nH]cc1-c1ccnc(NCc2cc(F)cc(F)c2)n1`, the pIC50 was over 5.30.

For `CC(C)c1n[nH]cc1-c1ccnc(NCc2ccc(N(C)C)cc2)n1`, the pIC50 is over 5.30.

`CC(C)c1[nH]ncc1-c1ccnc(NCc2cc(F)cc(F)c2)c1` showed a pIC50 of over 5.30.

`Cc1ccccc1CNc1cc(-c2cn[nH]c2C(C)C)ccn1`: the pIC50 is over 5.30.

In the case of `CC(C)c1n[nH]cc1-c1ccnc(NCCCN(C)c2ccccc2)n1`, the pIC50 was over 5.30.

`CC(C)CNc1cc(-c2cn[nH]c2C(C)C)ccn1` had a negative-log IC50 (pIC50) of over 6.30.

For the molecule `CCC(CC)c1[nH]ncc1-c1ccnc(NC2CCN(C)CC2)c1`, the negative logarithm of the IC50 (pIC50) is over 5.00.

The molecule `Cc1n[nH]cc1-c1ccnc(NCc2ccccc2)n1` gave a pIC50 of over 4.82.

In turn, `CC(C)c1n[nH]cc1-c1ccnc(NCCCN(C)C)n1` gave a pIC50 of over 5.00.

On to `CCCCNc1nccc(-c2c[nH]nc2C)n1`, for which the pIC50 was over 5.00.

`CC(C)c1[nH]ncc1-c1ccnc(NC2CCC2)c1` had a pIC50 of over 6.30.

The molecule `CC(C)c1n[nH]cc1-c1ccnc(NC2CCNCC2)n1` gave a negative-log IC50 (pIC50) of over 6.00.

As to `CC(=O)NCCNc1nccc(-c2c[nH]nc2C)n1`, the pIC50 is over 4.82.

`CCC(C)c1[nH]ncc1-c1ccnc(NC2CCc3ccccc32)c1` (centres undefined) gave a pIC50 of over 5.30.

`CC(C)c1n[nH]cc1-c1ccnc(NC2Cc3ccccc3C2)n1` showed a pIC50 of over 6.30.

As to `CC(C)c1[nH]ncc1-c1ccnc(NC2CCN(Cc3ccccc3)CC2)c1`, the pIC50 was over 4.82.

On to `CC(C)c1[nH]ncc1-c1ccnc(NC2CCCCC2)c1`, for which the pIC50 is over 6.30.
